The results in this text go back to the supplement of paper PMC4862054.

Experiment [1] relates to CAL-51. The settings on record: 72 h. As to the method: (§1)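 Drug sensitivity and resistance testing (DSRT) of breast cancer cell lines in 384-well plates, 5 concentrations in 10-fold dilutions over a compound-specific 10,000-fold range. After 72 h, cytotoxicity was read by CellTox Green fluorescence and viability by CellTiter-Glo luminescence (multiplexed), normalised to DMSO and benzethonium chloride controls. EC50 is the inflection point of the fitted dose-response curve (bottom asymptote free, so it can be relative for partial curves) and is censored at the highest tested concentration. Rows with DSS 0 (no meaningful response) were excluded.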

For another experiment, the system named is CAL-85-1. The settings on record: 72 h. As to the method: as §1
The subject of experiment [2] is HDQ-P1. To be noted: 72 h. Here is the method:
as §1

In experiment [3] the test system is MCF-10A. To be noted: 72 h. Here is the method: as §1
The test system of another experiment is MDA-MB-231. To be noted: 72 h. Here is the method: as §1
The test system of experiment [4] is MDA-MB-468. The settings on record: 72 h. As to the method: as §1
A further experiment has as its system HCC1599. To be noted: 72 h. In outline: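 For viability and cell death testing, 384-well plates carried compound at 5 concentrations in 10-fold steps over a compound-specific 10,000-fold range, and breast cancer cell lines were seeded in 20 µl suspension. After 72 h incubation, cell death was read by CellTox Green fluorescence (485/520 nm) before viability was read by CellTiter-Glo luminescence. EC50 was fitted from the dose-response curves and censored at the top concentration. Normalisation on each plate was to 0.1 % DMSO and a positive kill control.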

The subject of experiment [5] is CAL-148. The settings on record: 72 h. As to the method:
as §1

The next experiment relates to Hs578T. To be noted: 72 h. Here is the method: as §1
The subject of another experiment is MFM-223. To be noted: 72 h. As to the method:
as §1

Experiment [6] concerns BT-549. The experiment in a line: normalised response (% of control), CellTiter-Glo; higher = more viable cells (100 = DMSO, 0 = benzethonium chloride kill control). To be noted: incubation time: 72 h. In outline: (§2)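 CellTox Green fluorescence (485/520 nm) and, after 10 min at room temperature, CellTiter-Glo luminescence were read from breast cancer cell lines incubated 72 h in 384-well plates. Cells were seeded as 20 µl suspension onto compound at 5 concentrations in 10-fold steps over a 10,000-fold range chosen per compound. Each plate was normalised to 0.1 % DMSO (100) and a positive kill control (0). Values are normalised signals, one per concentration.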
In general terms: ATP-based viability assays read luminescence as a measure of living cells.

Experiment [7] has as its system CAL-148. The description is as above. To be noted: incubation time: 72 h. In outline:
as §2

Experiment [8] deals with CAL-51. Described as above. The settings on record: incubation time: 72 h. In outline: as §2
The subject of experiment [9] is MCF-10A. Described as above. The settings on record: incubation time: 72 h. Put shortly:
as §2

The test system of a further experiment is MDA-MB-436. The experiment is described as above. To be noted: incubation time: 72 h. Put shortly:
as §2

In experiment [10] the test system is MDA-MB-468. Described as above. The settings on record: incubation time: 72 h. Put shortly:
as §2

Another experiment has as its system SK-BR-3. The experiment is described as above. The settings on record: incubation time: 72 h. In outline:
as §2

The subject of experiment [11] is CAL-148. To be noted: 72 h. Put shortly: (§3)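 For viability, cells received 2.5 µl CellTiter-Blue for 2 h at 37 °C and fluorescence was read at 560/590 nm. Before this, breast cancer cell lines in 20 µl suspension had been incubated for 72 h on 384-well plates pre-loaded with compound dissolved in 5 µl medium. EC50 was obtained from a percent-inhibition dose-response fit censored at the highest concentration, after normalisation of each plate to vehicle and a positive kill control; rows with a zero drug sensitivity score were discarded.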
This is another data set of the same source.

In experiment [12] the test system is CAL-51. The settings on record: 72 h. In outline: as §3
This is another data set of the same source.

The test system of the next experiment is DU-4475. To be noted: 72 h. Put shortly: as §3
Another experiment has as its system HCC1143. To be noted: 72 h. In outline:
as §3

A further experiment has as its system HCC1937. To be noted: 72 h. In outline: as §3
The test system of a further experiment is MDA-MB-453. To be noted: 72 h. Put shortly:
as §3

The test system of the next experiment is BT-474. The settings on record: 72 h. Here is the method:
as §1

In experiment [13] the test system is HDQ-P1. To be noted: 72 h. Put shortly: as §3
This is another data set of the same source.

In experiment [14] the test system is BT-549. To be noted: 72 h. Put shortly: as §3

Structures are written as SMILES.

Consider `COc1cc2c(cc1-c1c(C)noc1C)ncc1[nH]c(=O)n([C@H](C)c3ccccn3)c12` [I-BET151], for which the “EC50, CellTox Green” value in the experiment with CAL-51 [1] came out at 1740 nM; in the experiment with CAL-85-1 it was 1370 nM; in the experiment with HDQ-P1 [2] it was 123 nM; with MCF-10A [3] it was 6940 nM; with MDA-MB-231, 8480 nM; in the experiment with MDA-MB-468 [4], 3140 nM.

Take `CC(C)n1nc(-c2ccc3oc(N)nc3c2)c2c(N)ncnc21` [INK128]: the “EC50, CellTiter-Glo” value with HCC1599 worked out at 28.8 nM. Also, the “EC50, CellTox Green” value in the experiment with CAL-148 [5] was determined as 56.9 nM; with Hs578T, 130 nM; with MFM-223, 494 nM.

`O=NN(CCCl)C(=O)NC1CCCCC1` [Lomustine] (10000 nM): the normalised response was found to be 104% in the experiment on BT-549 [6]; 97% in the experiment on CAL-148 [7]; 110% in the experiment on CAL-51 [8]; 104% in the experiment on MCF-10A [9]; 105% in the experiment on MDA-MB-436; 101% in the experiment with MDA-MB-468 [10]. The normalised response with SK-BR-3 worked out at 101%.

Consider `O=C(O)CC[C@H]1CC[C@@](c2cc(F)ccc2F)(S(=O)(=O)c2ccc(Cl)cc2)CC1` [MK-0752] (1000 nM), for which the normalised response with BT-549 [6] was determined as 93%; with CAL-148 [7], 115%; in the experiment with CAL-51 [8] it was 126%; with MCF-10A [9], 95.6%; in the experiment on MDA-MB-436, 105%; in the experiment on MDA-MB-468 [10], 94%. Further, in the experiment on SK-BR-3, the normalised response came out at 117%.

Regarding `NC(=O)c1cccc2cn(-c3ccc([C@@H]4CCCNC4)cc3)nc12` [MK-4827], the “EC50, CellTiter-Blue viability” value is 2330 nM in the experiment on CAL-148 [11]; 1780 nM in the experiment with CAL-51 [12]; 4420 nM with DU-4475; 1660 nM in the experiment on HCC1143; 1330 nM with HCC1937.

For the compound `NC(=O)c1cccc2cn(-c3ccc([C@@H]4CCCNC4)cc3)nc12` [MK-4827] (10000 nM), the normalised response with BT-549 [6] was found to be 83.7%; in the experiment with CAL-148 [7], 71.8%; in the experiment on CAL-51 [8], 65.8%; in the experiment on MCF-10A [9] it was 101%; in the experiment with MDA-MB-436, 68.9%; in the experiment on MDA-MB-468 [10], 45.8%. This compound gave a normalised response in the experiment with SK-BR-3 of 73.3%.

Turning to `CO[C@H](C(=O)[C@@H](O)[C@@H](C)O)[C@@H]1Cc2cc3cc(O[C@H]4C[C@@H](O[C@@H]5C[C@@H](O)[C@H](O)[C@@H](C)O5)[C@H](O)[C@@H](C)O4)c(C)c(O)c3c(O)c2C(=O)[C@H]1O[C@H]1C[C@@H](O[C@@H]2C[C@@H](O)[C@@H](O[C@@H]3C[C@](C)(O)[C@H](O)[C@@H](C)O3)[C@@H](C)O2)[C@H](O)[C@@H](C)O1` [Plicamycin] (10000 nM), the normalised response with BT-549 [6] is 1.99%; in the experiment with CAL-148 [7], 6.34%; in the experiment with CAL-51 [8], 9.56%; in the experiment on MCF-10A [9] it was 5.35%; in the experiment with MDA-MB-436, 22.5%; in the experiment with MDA-MB-468 [10], 4.44%. The compound also displayed a normalised response in the experiment on SK-BR-3 of 10.1%.

Consider `C[C@]12C=CC(=O)C=C1CC[C@@H]1[C@@H]2C(=O)C[C@@]2(C)[C@H]1CC[C@]2(O)C(=O)CO` [Prednisone] (10000 nM), for which the normalised response with BT-549 [6] stood at 94.6%; in the experiment with CAL-148 [7], 109%; in the experiment with CAL-51 [8] it was 118%; in the experiment with MCF-10A [9] it was 113%; with MDA-MB-436, 98.2%; in the experiment on MDA-MB-468 [10], 104%. In the experiment with SK-BR-3, this compound gave a normalised response of 107%.

Regarding `CO[C@H]1C[C@@H]2CC[C@@H](C)[C@@](O)(O2)C(=O)C(=O)N2CCCC[C@H]2C(=O)O[C@H]([C@H](C)C[C@@H]2CC[C@@H](O)[C@H](OC)C2)CC(=O)[C@H](C)/C=C(\C)[C@@H](O)[C@@H](OC)C(=O)[C@H](C)C[C@H](C)/C=C/C=C/C=C/1C` [Sirolimus] (100 nM), the normalised response with BT-549 [6] was determined as 54.1%; in the experiment with CAL-148 [7] it was 59.6%; in the experiment with CAL-51 [8], 61.3%; with MCF-10A [9], 85.7%; in the experiment with MDA-MB-436, 73.9%; with MDA-MB-468 [10] it was 53.4%. The compound further had a normalised response in the experiment with SK-BR-3 of 57.4%.

`CN1CCN(c2nc(C3=C(c4c[nH]c5ccccc45)C(=O)NC3=O)c3ccccc3n2)CC1` [Sotrastaurin] (10000 nM): the normalised response with BT-549 [6] worked out at 97.9%; in the experiment on CAL-148 [7], 84.3%; with CAL-51 [8] it was 92.5%; in the experiment with MCF-10A [9], 94.2%; in the experiment with MDA-MB-436 it was 107%; with MDA-MB-468 [10] it was 78.6%. Besides, the normalised response in the experiment on SK-BR-3 was 67.5%.

As for `CC/C(=C(\c1ccccc1)c1ccc(OCCN(C)C)cc1)c1ccccc1` [Tamoxifen] (10000 nM), the normalised response was 78.2% with BT-549 [6]; 77.7% in the experiment on CAL-148 [7]; 71.7% in the experiment with CAL-51 [8]; 74.3% in the experiment on MCF-10A [9]; 86.9% in the experiment with MDA-MB-436; 77% in the experiment on MDA-MB-468 [10]. The normalised response in the experiment on SK-BR-3 was found to be 53.4%.

For the compound `COc1cc2c(N3CCN(C(=O)Nc4ccc(OC(C)C)cc4)CC3)ncnc2cc1OCCCN1CCCCC1` [Tandutinib], the “EC50, CellTiter-Blue viability” value with CAL-148 [11] amounted to 605 nM.

For the compound `C[C@@H](C(=O)O)c1ccc(-c2ccccc2)c(F)c1` [Tarenflurbil], in the experiment on MDA-MB-453, the “EC50, CellTiter-Blue viability” value was 1410 nM. Also, in the experiment with BT-474, the “EC50, CellTox Green” value was above 10000 nM.

Consider `Cn1nnc2c(C(N)=O)ncn2c1=O` [Temozolomide], for which the “EC50, CellTiter-Blue viability” value with HDQ-P1 [13] was 7850 nM; with BT-549 [14], 1330 nM.

`Cn1nnc2c(C(N)=O)ncn2c1=O` [Temozolomide] (10000 nM): the normalised response amounted to 100% in the experiment with BT-549 [6]; 95.8% in the experiment on CAL-148 [7]; 106% with CAL-51 [8]; 96.2% in the experiment with MCF-10A [9]; 98% in the experiment on MDA-MB-436; 99.1% in the experiment on MDA-MB-468 [10]. Also, the normalised response in the experiment on SK-BR-3 was determined as 93.9%.

Consider `CC[C@@H]1C(=O)N(C)c2cnc(Nc3ccc(C(=O)N[C@H]4CC[C@H](N5CCN(CC6CC6)CC5)CC4)cc3OC)nc2N1C(C)C` [Volasertib] (1000 nM), for which the normalised response with BT-549 [6] was 29.1%; with CAL-148 [7], 79.9%; with CAL-51 [8], 26.9%; in the experiment on MCF-10A [9], 46.9%; in the experiment with MDA-MB-436 it was 65.6%; in the experiment on MDA-MB-468 [10], 48%. Moreover, the normalised response with SK-BR-3 came to 27.2%.
